From paper PMC11557435, “Identification of novel SARS-CoV-2 3CLpro inhibitors by molecular docking, in vitro assays, molecular dynamics simulations and DFT analyses” (Frontiers in Pharmacology, 2024)

Target: SARS-CoV-2 3CLpro (Severe acute respiratory syndrome coronavirus 2, UniProt P0DTD1)
Assay: biochemical
Settings: for inhibition at 50 µM: single point, 50 μM compound

Compound | IC50 [µM] | inhibition at 50 µM [%]
COc1cc(-c2nc3cnccn3c2Nc2cccc(Cl)c2)ccc1O [Compound 10] | 9.08 ± 0.56 | 78
CC[C@H](C)[C@H](NC(=O)c1ccc2nc(-n3cccc3)sc2c1)C(=O)NCc1cccnc1 [Compound 5] | 8.5 ± 0.26 | 84
CC[C@H](C)N(Cc1cccc(OC)c1)C[C@@H](O)COc1ccc(OC)cc1 [Compound 1] | 8.98 ± 0.57 | 85.4
CCC(CC)C(=O)Nc1cccc(C(=O)Nc2ccccc2C(=O)Nc2ccc(OC)cc2)c1 [Compound 43] | 6.99 ± 0.62 | 84.8
COc1ccc(NC(=O)c2ccccc2NC(=O)c2ccc([N+](=O)[O-])c(C)c2)cc1 [Compound 36] | 4.47 ± 0.39 | 81.9
CCOc1ccc(NC(=O)C(CC(C)C)NC(=O)C2CCC(C)CC2)cc1 (stereo not drawn) [Compound 34] | 6.12 ± 0.42 | 78.3
